Laboratory results as given in US20260069578A1, “TREATMENT OF NEUTROPHILIC DERMATOSES” (UNION THERAPEUTICS A/S, priority 2022, published 2026).
Converted amounts (≈) assume the structure as drawn.

How the values were obtained:
resistant vegetative PG = settings: one case, concomitantly with oral prednisone; cited from earlier work
[1] = molecular target: purified human recombinant PDE4D protein (Homo sapiens, UniProt Q08499); test: PDE4D scintillation proximity assay (SPA); assay type: biochemical
Sequence of purified human recombinant PDE4D protein (Q08499 whole entry): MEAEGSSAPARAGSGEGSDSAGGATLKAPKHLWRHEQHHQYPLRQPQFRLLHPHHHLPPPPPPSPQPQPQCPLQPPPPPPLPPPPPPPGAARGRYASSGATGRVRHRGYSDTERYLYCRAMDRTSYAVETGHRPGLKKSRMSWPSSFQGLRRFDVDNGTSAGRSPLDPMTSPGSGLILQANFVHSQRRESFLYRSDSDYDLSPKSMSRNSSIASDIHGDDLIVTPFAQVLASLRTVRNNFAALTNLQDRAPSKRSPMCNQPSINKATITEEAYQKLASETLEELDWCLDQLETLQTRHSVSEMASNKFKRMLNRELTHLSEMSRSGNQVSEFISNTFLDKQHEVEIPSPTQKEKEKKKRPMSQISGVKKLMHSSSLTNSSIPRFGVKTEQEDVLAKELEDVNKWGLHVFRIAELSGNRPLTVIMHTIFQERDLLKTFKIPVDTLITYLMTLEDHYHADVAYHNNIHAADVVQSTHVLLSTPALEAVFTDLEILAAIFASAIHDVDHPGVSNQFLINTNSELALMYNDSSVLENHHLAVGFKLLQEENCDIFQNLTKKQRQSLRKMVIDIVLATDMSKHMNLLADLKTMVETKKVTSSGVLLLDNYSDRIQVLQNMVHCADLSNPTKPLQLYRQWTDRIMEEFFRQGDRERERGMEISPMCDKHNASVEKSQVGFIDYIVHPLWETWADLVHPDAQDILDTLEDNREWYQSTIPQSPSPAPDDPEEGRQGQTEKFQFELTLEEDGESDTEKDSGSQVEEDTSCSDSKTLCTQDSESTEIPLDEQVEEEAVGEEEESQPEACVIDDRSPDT
Protocol: PDE4 enzymatic activity was measured in a scintillation proximity assay using purified human recombinant PDE4D protein.

PDE4A4 = PDE4A4 (Homo sapiens, UniProt P27815); assay type: biochemical
PDE4A10 = PDE4A10 (Homo sapiens, UniProt P27815); assay type: biochemical
Sequence of PDE4A10 (P27815 1-825 isoform P27815-6): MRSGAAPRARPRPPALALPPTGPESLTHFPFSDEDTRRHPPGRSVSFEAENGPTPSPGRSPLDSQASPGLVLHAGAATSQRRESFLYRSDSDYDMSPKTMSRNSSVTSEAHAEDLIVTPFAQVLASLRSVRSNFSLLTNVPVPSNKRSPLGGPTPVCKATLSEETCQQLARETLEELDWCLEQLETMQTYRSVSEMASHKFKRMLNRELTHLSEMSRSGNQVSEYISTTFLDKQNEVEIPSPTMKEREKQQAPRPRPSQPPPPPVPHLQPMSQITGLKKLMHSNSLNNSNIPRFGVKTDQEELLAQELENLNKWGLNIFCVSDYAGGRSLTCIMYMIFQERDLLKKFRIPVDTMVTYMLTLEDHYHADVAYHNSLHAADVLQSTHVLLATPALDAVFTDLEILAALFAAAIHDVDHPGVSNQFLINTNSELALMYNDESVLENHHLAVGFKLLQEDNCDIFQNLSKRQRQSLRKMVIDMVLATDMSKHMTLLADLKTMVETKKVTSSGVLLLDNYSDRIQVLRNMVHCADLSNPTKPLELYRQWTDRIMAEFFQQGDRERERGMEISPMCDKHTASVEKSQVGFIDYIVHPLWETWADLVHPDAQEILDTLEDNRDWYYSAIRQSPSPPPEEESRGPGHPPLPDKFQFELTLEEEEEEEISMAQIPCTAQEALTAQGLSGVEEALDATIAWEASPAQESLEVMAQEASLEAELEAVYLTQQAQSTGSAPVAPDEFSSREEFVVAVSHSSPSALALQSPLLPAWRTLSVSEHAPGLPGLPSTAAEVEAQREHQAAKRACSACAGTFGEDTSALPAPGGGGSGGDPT

PDE4B1 = PDE4B1 (Homo sapiens, UniProt Q07343); assay type: biochemical
Sequence of PDE4B1 (Q07343 whole entry): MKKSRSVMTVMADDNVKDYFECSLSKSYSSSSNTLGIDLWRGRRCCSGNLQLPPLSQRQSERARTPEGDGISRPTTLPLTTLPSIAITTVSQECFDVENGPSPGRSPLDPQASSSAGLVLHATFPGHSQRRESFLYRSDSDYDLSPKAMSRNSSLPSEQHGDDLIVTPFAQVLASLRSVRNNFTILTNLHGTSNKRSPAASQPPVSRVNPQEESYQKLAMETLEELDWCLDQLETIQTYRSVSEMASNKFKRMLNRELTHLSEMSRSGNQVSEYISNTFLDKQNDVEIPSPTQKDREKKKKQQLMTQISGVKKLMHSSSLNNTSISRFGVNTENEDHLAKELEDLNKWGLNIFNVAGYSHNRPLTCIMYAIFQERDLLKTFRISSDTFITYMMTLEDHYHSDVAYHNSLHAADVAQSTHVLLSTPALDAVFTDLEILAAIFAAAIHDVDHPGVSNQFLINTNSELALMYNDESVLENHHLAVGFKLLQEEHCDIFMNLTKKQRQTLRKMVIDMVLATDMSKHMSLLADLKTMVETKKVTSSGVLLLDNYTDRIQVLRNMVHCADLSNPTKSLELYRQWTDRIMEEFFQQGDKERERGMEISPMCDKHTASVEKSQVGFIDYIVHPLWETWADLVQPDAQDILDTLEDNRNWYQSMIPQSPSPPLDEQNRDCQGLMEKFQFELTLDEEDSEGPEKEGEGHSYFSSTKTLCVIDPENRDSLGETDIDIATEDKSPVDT
Protocol: (§1) Enzyme Preparations: Partially purified human recombinant phosphodiesterases (PDEs) were obtained by cloning cDNA and expressing in S. frugiperda insect cells using a baculovirus expression system. Cells are harvested from culture by centrifuging at 400×g for 5 minutes. Cell pellet is resuspended in 20 ml of RIPA Buffer (150 mM NaCl, 10 mM Tris, 0.1% NP-40, pH8.3), 4 ml/200 ml of culture, plus protease inhibitors (100 μl/10 ml) and incubated on ice for 10-20 minutes then spun at 3500×g for 10 minutes at 4° C. Supernatant is kept and the pellet thrown away.
(§2) Tritium-labelled cyclic AMP is hydrolysed to 5′-AMP o by PDE. The 5′-AMP is then further hydrolysed to adenosine by nucleotidase in snake venom. An anion-exchange resin binds all charged nucleotides and leaves [^3H]adenosine as the only labelled compound to be counted by liquid scintillation.
(§3) 50 μl of diluted PDE enzyme was incubated with 50 μl of [^3H]-cAMP (specific activity 25 Ci/mmol) and 11 μl of 50% DMSO (or compound dilution) for 20 minutes at 30° C. The enzyme was diluted in 20 mM Tris HCl pH7.4 (×2.2 final concentration) and [3H]-cAMP was diluted in 10 mM MgCl2, 40 mM Tris HCl pH 7.4 (×2.2 final concentration). Reactions were carried out in Greiner 96 deep well 1 ml master-block. The plates were centrifuged for 9 seconds before the 20 minutes incubation. […] After incubation 200 μl Dowex resin (1×8, 200-400 mesh) was added and the plate shaken for 20 minutes then centrifuged for 3 minutes at 1000×g. 5 μl of supernatant was removed and added to 200 μl of MicroScint-20 in white plates (Greiner 96 well Optiplate) and shaken for 30 minutes before reading on Perkin Elmer TopCount Scintillation Counter. […] values were calculated using GraphPad Prism software (version 8).

PDE4B2 = PDE4B2 (Homo sapiens, UniProt Q07343); assay type: biochemical
Sequence of PDE4B2 (Q07343 1-564 isoform Q07343-2): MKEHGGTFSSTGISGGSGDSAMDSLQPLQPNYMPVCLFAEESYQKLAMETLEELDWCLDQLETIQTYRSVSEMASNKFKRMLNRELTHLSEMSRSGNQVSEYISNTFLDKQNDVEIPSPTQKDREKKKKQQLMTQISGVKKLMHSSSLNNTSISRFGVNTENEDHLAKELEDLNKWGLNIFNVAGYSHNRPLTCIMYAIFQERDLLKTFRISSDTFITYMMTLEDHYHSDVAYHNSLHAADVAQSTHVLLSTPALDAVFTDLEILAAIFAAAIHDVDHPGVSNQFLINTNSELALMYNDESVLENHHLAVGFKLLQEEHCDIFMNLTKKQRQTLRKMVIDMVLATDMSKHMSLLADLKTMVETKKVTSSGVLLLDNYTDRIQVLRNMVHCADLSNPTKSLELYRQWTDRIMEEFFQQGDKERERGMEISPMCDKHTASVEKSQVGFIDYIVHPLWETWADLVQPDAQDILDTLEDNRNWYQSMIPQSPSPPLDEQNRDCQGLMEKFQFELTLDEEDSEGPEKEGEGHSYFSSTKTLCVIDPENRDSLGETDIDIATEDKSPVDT
Protocol: as §1, §2, §3

PDE4B3 = PDE4B3 (Homo sapiens, UniProt Q07343); assay type: biochemical
Protocol: as §1, §2, §3

PDE4D1 = PDE4D1 (Homo sapiens, UniProt Q08499); assay type: biochemical
Protocol: as §1, §2, §3

PDE4D2 = PDE4D2 (Homo sapiens, UniProt Q08499); assay type: biochemical; settings: value generated by extrapolation of data
Sequence of PDE4D2 (Q08499 303-809): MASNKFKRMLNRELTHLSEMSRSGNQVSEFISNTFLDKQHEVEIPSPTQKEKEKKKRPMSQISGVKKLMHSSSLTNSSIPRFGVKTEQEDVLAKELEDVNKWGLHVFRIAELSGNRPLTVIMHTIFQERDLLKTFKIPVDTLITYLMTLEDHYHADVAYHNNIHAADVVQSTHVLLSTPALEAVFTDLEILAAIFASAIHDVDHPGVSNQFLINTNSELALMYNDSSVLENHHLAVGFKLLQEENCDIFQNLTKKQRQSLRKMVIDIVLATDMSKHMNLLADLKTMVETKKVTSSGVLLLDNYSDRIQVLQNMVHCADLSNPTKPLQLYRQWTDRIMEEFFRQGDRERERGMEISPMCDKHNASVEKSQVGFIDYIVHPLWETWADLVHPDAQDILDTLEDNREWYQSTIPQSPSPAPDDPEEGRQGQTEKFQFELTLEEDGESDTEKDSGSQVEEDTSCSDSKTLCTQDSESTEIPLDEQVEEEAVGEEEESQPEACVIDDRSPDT
Protocol: as §1, §2, §3

PDE4D3 = PDE4D3 (Homo sapiens, UniProt Q08499); assay type: biochemical; settings: value generated by extrapolation of data
Protocol: as §1, §2, §3

PDE4D5 = PDE4D5 (Homo sapiens, UniProt Q08499); assay type: biochemical
Protocol: as §1, §2, §3

PDE4D7 = PDE4D7 (Homo sapiens, UniProt Q08499); assay type: biochemical
Sequence of PDE4D7 (Q08499 1-748 isoform Q08499-11): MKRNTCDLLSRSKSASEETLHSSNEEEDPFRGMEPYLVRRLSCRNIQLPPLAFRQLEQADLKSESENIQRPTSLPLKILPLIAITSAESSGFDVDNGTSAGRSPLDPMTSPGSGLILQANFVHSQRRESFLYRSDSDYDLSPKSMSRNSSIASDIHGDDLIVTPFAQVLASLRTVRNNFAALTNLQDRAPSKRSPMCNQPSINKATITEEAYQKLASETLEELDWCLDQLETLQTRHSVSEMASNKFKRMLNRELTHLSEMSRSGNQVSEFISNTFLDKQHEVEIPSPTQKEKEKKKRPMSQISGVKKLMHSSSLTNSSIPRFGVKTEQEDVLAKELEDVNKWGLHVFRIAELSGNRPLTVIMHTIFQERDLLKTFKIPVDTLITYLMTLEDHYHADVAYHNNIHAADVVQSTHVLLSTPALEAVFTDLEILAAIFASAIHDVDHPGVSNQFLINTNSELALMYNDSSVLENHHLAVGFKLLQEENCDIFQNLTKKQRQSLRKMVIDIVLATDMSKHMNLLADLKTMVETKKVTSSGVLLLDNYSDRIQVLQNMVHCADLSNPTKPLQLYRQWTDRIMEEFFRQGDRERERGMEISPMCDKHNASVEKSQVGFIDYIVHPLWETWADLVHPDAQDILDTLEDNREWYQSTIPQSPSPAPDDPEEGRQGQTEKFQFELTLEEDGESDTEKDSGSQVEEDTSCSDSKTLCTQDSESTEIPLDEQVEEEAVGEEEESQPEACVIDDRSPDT
Protocol: as §1, §2, §3

[2] = system: pyoderma gangrenosum with concomitant HS / PASH syndrome; test: Clinical study in two patients; assay type: in vivo, human
Protocol: The efficacy of the peroral anti-inflammatory PDE4-inhibitor Orismilast was investigated in two patients, one with pyoderma gangrenosum and concomitant HS, the other with PASH syndrome. Patients received a titrated dose of Orismilast of up to 40 mg twice daily for 16 weeks.

PDE4A1 = PDE4A1 (Homo sapiens, UniProt P27815)
Sequence of PDE4A1 (P27815 1-647 isoform P27815-4): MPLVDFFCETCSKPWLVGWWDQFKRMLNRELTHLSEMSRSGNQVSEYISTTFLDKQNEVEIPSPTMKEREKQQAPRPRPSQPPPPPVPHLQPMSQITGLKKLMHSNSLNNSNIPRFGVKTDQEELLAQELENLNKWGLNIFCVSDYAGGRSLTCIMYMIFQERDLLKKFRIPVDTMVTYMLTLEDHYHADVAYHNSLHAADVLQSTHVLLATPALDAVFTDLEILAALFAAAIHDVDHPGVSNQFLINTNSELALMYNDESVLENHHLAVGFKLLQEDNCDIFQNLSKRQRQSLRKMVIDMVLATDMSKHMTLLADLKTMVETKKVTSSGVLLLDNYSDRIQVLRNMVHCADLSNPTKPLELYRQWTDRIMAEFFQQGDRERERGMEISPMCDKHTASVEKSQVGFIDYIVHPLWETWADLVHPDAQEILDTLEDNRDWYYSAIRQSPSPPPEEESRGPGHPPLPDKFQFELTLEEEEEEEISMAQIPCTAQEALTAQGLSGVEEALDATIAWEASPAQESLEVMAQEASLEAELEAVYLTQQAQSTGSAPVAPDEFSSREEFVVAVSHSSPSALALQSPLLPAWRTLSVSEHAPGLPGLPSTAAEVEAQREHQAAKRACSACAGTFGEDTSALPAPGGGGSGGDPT

[3] = system: conscious, unrestrained ferret; test: Emesis study in ferrets; settings: oral, 1, 3, 10 and 30 mg/kg
LPS-induced TNF-α = LPS-induced TNF-α in ferrets after single oral administration; settings: LPS 3 mg/kg ip
[4] = system: TNF-α secretion from human whole blood; test: Whole blood TNF-α secretion assay (LPS or SEB stimulated); assay type: cell-based; settings: 24 h, SEB 1 μg/mL, donor 2
[5] = Case 1, PASH syndrome, 20 mg twice daily
[6] = Case 2, PG and HS, 30 plus 40 mg daily

In the case of `CCOc1cc([C@@H](CS(C)(=O)=O)N2C(=O)c3cccc(NC(C)=O)c3C2=O)ccc1OC` [Apremilast], the Lesion healing (resistant vegetative PG) is given as “Complete healing of one lesion and partial healing of another”.

For `O=C(Cc1c(Cl)c[n+]([O-])cc1Cl)c1ccc(OC(F)F)c2c1OC1(CCS(=O)(=O)CC1)O2` [Compound (I), 2-(3,5-Dichloro-1-oxido-pyridine-4-yl)-1-(7-difluoro-methoxy-2′,3′,5′,6′-tetrahydro-spiro[1,3-benzodioxole-2, 4′-(4H)-thiopyran-1′,1′-dioxide]-4-yl)ethanone], the “EC50 values, PDE4D SPA” value [1] was 7.5 ng/mL (≈ 0.0147 µM), the IC50 (PDE4A4) was 11.3 nM and the IC50 (PDE4A10) was 52.3 nM. The IC50 (PDE4B1) was 15.7 nM, the IC50 (PDE4B2) was 5.6 nM and the IC50 (PDE4B3) was 2.94 nM. For the same molecule, the IC50 (PDE4D1) was 8.67 nM, the IC50 (PDE4D2) was 2.03 nM and the IC50 (PDE4D3) was 1.75 nM. The IC50 (PDE4D5) was 2.18 nM, the IC50 (PDE4D7) was 2.94 nM and the HS lesions [2, 5] was “gradually improved”. The pyoderma wounds [2, 5] was “slowly recovered”, the HS lesions [2, 6] was “remained calm” and the pyoderma wounds [2, 6] was “completely healed”. For the same molecule, the IC50 (PDE4A1) was 16.4 nM, the “Health status or body weight gain” value [3] was “not to influence” and the “Increase of TNF-α levels observed at 1 hour after LPS” value (LPS-induced TNF-α; oral, 1, 3 and 10 mg/kg) was “attenuated”.

For `O=C(Nc1c(Cl)cncc1Cl)c1ccc(OC(F)F)c(OCC2CC2)c1` [Roflumilast, reference compound], the “Health status or body weight gain” value [3] was “did not influence” and the “Increase of TNF-α levels observed at 1 hour after LPS” value (LPS-induced TNF-α; oral, 1 and 3 mg/kg) was “attenuated”.

`C[C@@H]1CCN(C(=O)CC#N)C[C@@H]1N(C)c1ncnc2[nH]ccc12` [Tofacitinib] gave an Emax [4] of 100%.
